Drawing on ChEMBL document CHEMBL5247664, “Structure-activity relationship of BMS906024 derivatives for Cryptosporidium parvum growth inhibition” (Bioorg Med Chem Lett, 2023), this text covers EC50 and EC90 for 30 compounds.

Assay type in all cases: functional, organism-based
The test system of assay [1] is Cryptosporidium parvum. Description: Antiparasitic activity against Cryptosporidium parvum assessed as parasitic growth inhibition measured for 24 hrs.
Assay [2] deals with Cryptosporidium parvum. Description: Antiparasitic activity against Cryptosporidium parvum infected in human HCT-8 cells assessed as parasitic growth inhibition measured for 48 hrs by fluorescence based microscopic analysis. Conditions: for EC50: HCT-8, 48 h; for EC90: HCT-8, time 48 hrs.
Assay [3] has as its system Cryptosporidium parvum. The assay can be described thus: Antiparasitic activity against Cryptosporidium parvum infected in human HCT-8 cells assessed as parasitic growth inhibition incubated for 45 mins followed by compound washout further infected in cells and measured after 48 hrs by microscopic analysis.
The subject of assay [4] is Cryptosporidium parvum. The assay can be described thus: Antiparasitic activity against Cryptosporidium parvum assessed as parasitic growth inhibition.

A word on the EC50: it is the concentration needed to bring the measured effect to its halfway point. As to `C[C@H](NC(=O)Cc1cc(F)cc(F)c1)C(=O)N[C@H](C(=O)OC(C)(C)C)c1ccccc1`, the EC50 with Cryptosporidium parvum [1] was found to be 12.5 µM.
The EC90 is the point of the concentration-response curve where the effect stands at 90%. `CN1C(=O)[C@H](NC(=O)[C@H](CCC(F)(F)F)CC(=O)N2CCCCC2)N=C(c2ccccc2)c2cc(Cl)c(OC3COC3)cc21`: in the assay with Cryptosporidium parvum [2], the concentration giving a half-maximal response (EC50) was 5.47 µM and the 90% effect concentration (EC90) was 12.8 µM.
For `CN1C(=O)[C@H](NC(=O)[C@H](CCC(F)(F)F)CC(=O)N2CCCCC2)N=C(c2ccccc2)c2ccc(OC3COC3)cc21` the same measures were 2.29 µM and 4.9 µM.
In the case of `COc1ccc2c(c1)N(C)C(=O)[C@@H](NC(=O)[C@H](CCC(F)(F)F)CC(=O)N1CCCCC1)N=C2c1ccccc1`, in the assay with Cryptosporidium parvum [2], the concentration giving a half-maximal response (EC50) stood at 0.031 µM and the concentration for an effect of 90% (EC90) was found to be 0.066 µM.
For the compound `CN1C(=O)[C@@H](NC(=O)[C@H](CCC(F)(F)F)CC(=O)N2CCCCC2)N=C(c2ccccc2)c2cc(Cl)c(OC3COC3)cc21`, in the assay with Cryptosporidium parvum [2], the 50% effective concentration (EC50) stood at 0.32 µM and the EC90 is 0.96 µM.
Consider `CN1C(=O)[C@@H](NC(=O)[C@H](CCC(F)(F)F)CC(=O)N2CCCCC2)N=C(c2ccccc2)c2ccc(Oc3ccccc3)cc21`, for which, in the assay on Cryptosporidium parvum [2], the 50% effective concentration (EC50) amounted to 0.025 µM and the concentration for an effect of 90% (EC90) is 0.055 µM.
As to `CCCNC(=O)C[C@@H](CCC(F)(F)F)C(=O)N[C@H]1N=C(c2ccccc2)c2ccc(OC3COC3)cc2N(C)C1=O`, in the assay on Cryptosporidium parvum [2], the EC50 stood at 0.35 µM and the EC90 is 0.97 µM.
For `CCCNC(=O)C[C@H](CCC(F)(F)F)C(=O)N[C@H]1N=C(c2ccccc2)c2ccccc2N(C)C1=O`, in the assay on Cryptosporidium parvum [2], the EC50 was above 25 µM and the EC90 is above 25 µM.
`CCCNC(=O)CCC(=O)N[C@H]1N=C(c2ccccc2)c2ccccc2N(C)C1=O`: in the assay on Cryptosporidium parvum [2], the concentration for a half-maximal effect (EC50) was above 25 µM and the EC90 was above 25 µM.
With `CN1C(=O)[C@@H](NC(=O)[C@H](CCC(F)(F)F)CC(N)=O)N=C(c2ccccc2)c2ccccc21`, in the assay on Cryptosporidium parvum [2], the concentration for a half-maximal effect (EC50) was above 25 µM and the 90% effect concentration (EC90) was above 25 µM.
For the compound `CN1C(=O)[C@@H](NC(=O)[C@H](CCC(F)(F)F)CC(=O)N2CCCCC2)N=C(c2ccccc2)c2ccc(OC3COC3)cc21`, in the assay on Cryptosporidium parvum [2], the EC50 is 0.11 µM and the concentration for an effect of 90% (EC90) worked out at 0.21 µM.
For the compound `CCN(CC)C(=O)C[C@@H](CCC(F)(F)F)C(=O)N[C@H]1N=C(c2ccccc2)c2ccccc2N(C)C1=O`, the half-maximal effective concentration (EC50) in the assay on Cryptosporidium parvum [3] amounted to 0.5 µM. In the assay on Cryptosporidium parvum [2], the EC50 was 0.11 µM and the EC90 is 0.31 µM.
On to `CN1C(=O)[C@@H](NC(=O)[C@H](CCC(F)(F)F)CC(=O)N2CCCCC2)N=C(c2ccccc2)c2ccccc21`, for which, in the assay with Cryptosporidium parvum [2], the EC50 was 0.0064 µM and the EC90 is 0.016 µM.
`CN1C(=O)[C@@H](NC(=O)[C@H](CCC(F)(F)F)CC(=O)N2CCOCC2)N=C(c2ccccc2)c2ccccc21`: in the assay on Cryptosporidium parvum [2], the EC50 amounted to 0.052 µM and the 90% effect concentration (EC90) came to 0.1 µM.
In the case of `CCCNC(=O)C(C)(C)CC(=O)N[C@H]1N=C(c2ccccc2)c2ccccc2N(C)C1=O`, in the assay on Cryptosporidium parvum [2], the half-maximal effective concentration (EC50) was above 25 µM and the EC90 was above 25 µM.
With `CCCNC(=O)C[C@@H](CCC(F)(F)F)C(=O)N[C@@H]1N=C(c2ccccc2)c2ccc(OC3COC3)cc2N(C)C1=O`, in the assay with Cryptosporidium parvum [2], the EC50 was above 25 µM and the concentration for an effect of 90% (EC90) is above 25 µM.
`CCCNC(=O)[C@@H](CCC(F)(F)F)CC(=O)N[C@H]1N=C(c2ccccc2)c2ccccc2N(C)C1=O`: in the assay on Cryptosporidium parvum [2], the EC50 is above 25 µM and the concentration for an effect of 90% (EC90) is above 25 µM.
As for `CCCNC(=O)C[C@@H](CCC(F)(F)F)C(=O)N[C@H]1N=C(c2ccccc2)c2ccc(OC)cc2N(C)C1=O`, in the assay with Cryptosporidium parvum [2], the EC50 stood at 0.081 µM and the concentration for an effect of 90% (EC90) came to 0.15 µM.
`CCNC(=O)C[C@@H](CCC(F)(F)F)C(=O)N[C@H]1N=C(c2ccccc2)c2ccccc2N(C)C1=O`: in the assay on Cryptosporidium parvum [2], the half-maximal effective concentration (EC50) amounted to 0.28 µM and the EC90 was found to be 0.61 µM.
With `CN1C(=O)[C@H](NC(=O)[C@H](CCC(F)(F)F)CC(=O)N2CCCCC2)N=C(c2ccccc2)c2ccc(OC3CCC3)cc21`, in the assay with Cryptosporidium parvum [2], the EC50 turned out to be 2.52 µM and the EC90 turned out to be 11.1 µM.
Turning to `CN1C(=O)[C@@H](NC(=O)C[C@H](CCC(F)(F)F)C(N)=O)N=C(c2ccccc2)c2ccccc21`, in the assay with Cryptosporidium parvum [2], the 50% effective concentration (EC50) stood at 25 µM and the EC90 was above 25 µM.
Turning to `CCCNC(=O)CC(C)(C)C(=O)N[C@H]1N=C(c2ccccc2)c2ccccc2N(C)C1=O`, in the assay on Cryptosporidium parvum [2], the EC50 was above 25 µM and the EC90 was above 25 µM.
`CN1C(=O)[C@H](NC(=O)[C@H](CCC(F)(F)F)CC(=O)N2CCCCC2)N=C(c2ccccc2)c2ccc(Oc3ccccc3)cc21`: in the assay on Cryptosporidium parvum [2], the EC50 was 1.69 µM and the EC90 came to 3.61 µM.
For `CCC[C@H](CC(=O)N1CCCC1)C(=O)N[C@H]1N=C(c2ccccc2)c2ccccc2N(C)C1=O` the same measures were 0.11 µM and 0.23 µM.
For `CCCN(CCC)C(=O)C[C@@H](CCC(F)(F)F)C(=O)N[C@H]1N=C(c2ccccc2)c2ccccc2N(C)C1=O` the same measures were 1.45 µM and 2.79 µM.
As to `CN1C(=O)[C@@H](NC(=O)[C@H](CCC(F)(F)F)CC(=O)N2CCCCC2)N=C(c2ccccc2)c2ccc(OC3CCC3)cc21`, in the assay with Cryptosporidium parvum [2], the 50% effective concentration (EC50) came out at 0.077 µM and the EC90 was determined as 0.16 µM.
`CCCNC(=O)C[C@@H](CCC(F)(F)F)C(=O)N[C@H]1N=C(c2ccccc2)c2ccccc2N(C)C1=O`: in the assay with Cryptosporidium parvum [2], the EC50 was found to be 0.018 µM and the EC90 was 0.056 µM.
For the compound `CN1C(=O)[C@@H](NC(=O)[C@H](CCC(F)(F)F)CC(=O)OC(C)(C)C)N=C(c2ccccc2)c2ccccc21`, in the assay with Cryptosporidium parvum [2], the EC50 was 0.55 µM and the EC90 was 1.12 µM.
Take `CN1C(=O)[C@@H](NC(=O)[C@H](CCC(F)(F)F)[C@H](CCC(F)(F)F)C(N)=O)N=C(c2ccccc2)c2ccccc21` [OSUGACESTAT]: the EC50 in the assay with Cryptosporidium parvum [4] and with Cryptosporidium parvum [2] was 0.0018 µM throughout. In addition, in the assay with Cryptosporidium parvum [2], the EC90 stood at 0.0023 µM.
`CC(C)[C@H](O)C(=O)N[C@@H](C)C(=O)N[C@@H]1C(=O)N(C)CCc2ccccc21` [SEMAGACESTAT]: in the assay with Cryptosporidium parvum [1], the half-maximal effective concentration (EC50) worked out at 4.2 µM.
